# Laboratory results reported in paper PMC9015527 (Chemistry (Weinheim an Der Bergstrasse, Germany), 2021).
# Tests used:
# [1] = in vitro; details: human, Caco-2
# [2] = test system: SARS-CoV-2 d6-YFP
# [3] = test system: SARS-CoV-2 isolate MUC-IMB-1/2020; format: cell-based
# [4] = test system: SARS-CoV-2 isolate MUC-IMB-1/2020; experiment: microbe, parasite or virus in culture; format: cell-based
# [5] = in vitro; details: simian (monkey)
smiles,measurement,setting,value
"CCN(CC)CCCC(C)Nc1ccnc2cc(Cl)ccc12 (stereo not shown) [CQ, chloroquine]",CC50,[1],41.7 ± 2.5 µM
same,SI (Caco-2),[2],3.2
same,"SI (Vero 76, mAb-S)",[3],>32.3
same,"SI (Vero 76, mAb-dsRNA)",[4],>14
same,EC50,"[4]; Severe acute respiratory syndrome coronavirus 2, Vero 76, read-out: EC50 (Vero 76, mAb-dsRNA)",2.2 ± 0.9 µM
same,CC50,"[5]; CC50 (Vero 76, mAb-S)",> 100 µM
same,CC50,"[5]; CC50 (Vero 76, mAb-dsRNA)",> 30 µM
